Laboratory results published in patent US20230103007A1, “COMBINATION THERAPY FOR TREATING ABNORMAL CELL GROWTH” (priority 2020, published 2023).

Tests used:
[1] = system: pMEK and pERK in H2122 KRAS G12C NSCLC xenograft tumors; experiment: Pharmacodynamic study in H2122 xenograft tumors (pMEK, pERK western blot); format: in vivo, Balb/c nude mice; conditions: VS-6766 0.3 mg/kg + AMG-510 30 mg/kg, oral, daily for 5 days; tumors harvested 2, 8 and 24 hours after final dose
Procedure: (§1) KRAS G12C mutant NSCLC H2122 and H358 tumor cells and Balb/c nude mice were used. Tumor challenge was initiated by subcutaneous inoculation of 1×10^7 tumor cell suspensions into the right flank of recipient mice. Tumor sizes (mm^3) and body weights were measured 3 times per week for the duration of the study. At the time of routine monitoring, the animals were checked for any effects of tumor growth and treatments on normal behavior such as mobility, food and water consumption (by looking only), and body weight gain/loss, eye/hair matting and any other abnormal effect.

[2] = system: RAS pathway signaling (pMEK, pERK, p-p90RSK); experiment: Western blot of RAS pathway signaling in KRAS G12C mt NSCLC cell lines; format: cell-based
Procedure: KRAS G12C mutant NSCLC cells (H2122, H358, H1373 and SW1573) were seeded in 10-cm dishes. After an incubate overnight (17-22hrs) cells were treated with 100 nM VS-6766 +/−100 nM G12C inhibitor. 4 and 48 hours post compound treatment, cells were collected, and cell lysates prepared using RIPA buffer containing protease inhibitors. Western blot assays were run using antibodies for pMEK, MEK, pERK, ERK, p-p90RSK, p90RSK and actin.

[3] = system: KRAS G12C mt NSCLC and colorectal cancer cell lines (H2122, H358, H2030, H1373, SW837, SW1463); experiment: 3D proliferation assay in vitro (CellTiter-Glo 3D, synergy analysis); format: cell-based; conditions: 7 days treatment, panel of KRAS G12C mt NSCLC and CRC cell lines, Loewe model
Procedure: KRAS G12C mutant NSCLC (H2122, H358, H2030, H1373) and colorectal cancer (CRC; SW837 and SW1463) were used. Briefly, 96-well plates were coated with 50 μL of Matrigel (100%) and incubated at 37° C. and 5% CO2 for 30 min in order for the Matrigel to solidify. Cells were seeded in 100 μL of 2% Matrigel containing medium. After an incubate overnight (17-22 hours) cells were treated with VS-6766 +/−G12C inhibitor +/−Defactinib for 7 days. Cell viability was measured using the cell viability CellTiter-Glo 3D assay. Combination effects were evaluated by comparing the averaged viability/inhibition to two different null reference models derived from the single agent activities. Bliss, Loewe and Highest Single Agent synergy analysis were performed to determine synergy scores.

[4] = system: H2122 KRAS G12C mt NSCLC xenograft; experiment: Xenograft efficacy study, H2122; format: in vivo, Balb/c nude mice; conditions: for augmentation of tumor growth inhibition by sotorasib: 0.3 mg/kg QD in combination with sotorasib 30 mg/kg QD; for effect on AMG-510 efficacy (change in tumor volume): in combination with AMG-510, H2122 tumor bearing mice, 10 days; for mice with tumor regression, combination with sotorasib: in combination with sotorasib, 10 days of treatment
Procedure: as §1
(§2) For efficacy studies, once tumors reached an average volume of 150-200 mm^3, mice were sorted into 10 groups (n=10): vehicle 1 (5% DMSO, 10% HPCD in sterile water)+vehicle 2 (2% HPMC, 1% Tween 80 in sterile water), VS-6766 in vehicle 1 (0.3 mg/kg PO QD, 28 days)+vehicle 2, AMG-510 in vehicle 2 (30 mg/kg PO QD, 28 days)+vehicle 1, VS-6766+AMG-510, VS-4718 (0.5% CMC-Na, 0.1% Tween 80 in sterile water) (50 mg/kg PO BID, 28 days)+vehicle 2, VS-4718+VS-6766, VS-4718+AMG-510, VS-4718+AMG-510+VS-6766, trametinib (0.3 mg/kg PO QD, 28 days) (0.5% hydroxypropylmethylcellulose and 0.2% Tween-80 in distilled water (pH 8.0))+vehicle 2, and trametinib+AMG-510. Mice were euthanized when tumor volumes>2,000 mm^3.

[5] = system: H358 KRAS G12C mt NSCLC xenograft; experiment: Xenograft efficacy study, H358; format: in vivo, Balb/c nude mice; conditions: in combination with G12Ci (AMG-510); 21 days
Procedure: as §1, §2

[6] = 100 nM VS-6766 + 100 nM AMG-510, 4 and 48 hours
[7] = 100 nM VS-6766 + 100 nM MRTX849, 4 and 48 hours

| SMILES | inhibition of pMEK and pERK in tumors, combination with sotorasib relative to sotorasib alone [1] | depth and duration of inhibition of MEK/ERK signaling, added to AMG-510, relative to G12C inhibitor alone [2, 6] | pERK inhibition by combination with AMG-510 versus AMG-510 alone [2, 6] | depth and duration of inhibition of MEK/ERK signaling, added to MRTX849, relative to G12C inhibitor alone [2, 7] | pERK inhibition by combination with MRTX849 versus MRTX849 alone [2, 7] | suppression of RAS pathway signaling (pMEK, pERK, p-p90RSK) as a single agent ([2]; single agent, 100 nM, 4 and 48 hours, KRAS-G12C NSCLC cell lines) | synergy in reducing viability, combination with adagrasib [3] | synergy in reducing viability, combination with sotorasib [3] | augmentation of tumor growth inhibition by sotorasib [4] | effect on AMG-510 efficacy (change in tumor volume) [4] | mice with tumor regression, combination with sotorasib [4] | mice with tumor reductions of >35%, triple combination ([4]; triple combination of VS-6766, sotorasib and a FAK inhibitor) | effect on efficacy of G12Ci in H358 xenograft model [5] |
| --- | --- | --- | --- | --- | --- | --- | --- | --- | --- | --- | --- | --- | --- |
| CNS(=O)(=O)Nc1nccc(Cc2c(C)c3ccc(Oc4ncccn4)cc3oc2=O)c1F [VS-6766] | improved inhibition | increases depth and duration of inhibition | better | increases depth and duration of inhibition | better | effectively suppressed | synergistic | synergistic | augmented | potentiate | 5/10 | 10/10 | enhance |
| CC(=O)Nc1cccc(-n2c(=O)n(C3CC3)c(=O)c3c(Nc4ccc(I)cc4F)n(C)c(=O)c(C)c32)c1 [trametinib, reference compound] | – | – | – | – | – | – | – | – | much less effective | – | 1/10 | – | – |
| CNC(=O)c1ccccc1Nc1cc(Nc2ccc(N3CCOCC3)cc2OC)ncc1C(F)(F)F [FAK inhibitor] | – | – | – | – | – | – | – | – | – | potentiate | 4/10 | – | enhance |
| CNC(=O)c1ccc(Nc2ncc(C(F)(F)F)c(NCc3nccnc3N(C)S(C)(=O)=O)n2)cc1 [defactinib] | – | – | – | – | – | – | synergistic | synergistic | – | – | – | – | – |
